{"source": "patent US20070196344A1", "about": "“Methods for identifying materials that can help regulate the condition of mammalian keratinous tissue” (The Procter & Gamble Company, priority 2006, published 2007)", "key": {"Procollagen I": {"tested_on": "Procollagen I", "test": "Procollagen I ELISA on extracts of treated MatTek EpiDermFT (EFT-200) full thickness skin equivalent cultures", "type": "cell-based, human", "details": "topical 0.5%, 2.0% in water, 20-24 hours, EFT-200 cultures, vs vehicle Control, dose-responsive", "experimental": "(§1) To evaluate skin anti-aging benefits of n-acetyl glucosamine and niacinamide. An in vitro skin biomarker experiment is conducted using the MatTek Human Skin EpiDermFT Skin Model (EFT 200; MatTek Corp., Ashland, Mass. USA). The MatTek Skin Model is a full thickness culture system that emulates normal human skin properties and function. It contains a three-dimensional, highly differentiated human epidermis with 8-12 cell layers including basal, spinous, granular and stratum corneum layers; the epidermis is grown above a human dermal fibroblast-containing collagen matrix. The MatTek cultures are air-interfaced, so that test substances can be applied topically to the stratum corneum surface. The cultures are supplied in 24-well, medium-supplemented agarose gels.\n(§2) MatTek EFT-200 full thickness skin equivalent cultures used are examined for visual defects and equilibrated overnight after their arrival from the supplier. After treatment with test materials the cultures' viability is confirmed through MTT viability assay. […]\n(§3) After treatment for 20-24 hours, replicate (3) cultures are extracted using a mild extraction buffer (T-per). The extract is then analyzed for hyaluronic acid and procollagen-1.\n(§4) • 1. […] Analyze supernatant with the Micro BCA kit to quantitate protein concentration. • 4. […]"}, "Hyaluronic Acid": {"tested_on": "Hyaluronic Acid", "test": "Hyaluronic acid ELISA on extracts of treated MatTek EpiDermFT (EFT-200) full thickness skin equivalent cultures", "type": "cell-based, human", "details": "topical 0.5%, 1.0%, 2.0% in water, 20-24 hours, EFT-200 cultures, vs vehicle Control; dose-responsive", "experimental": "as §1, §2, §3, §4"}}}
{"smiles": "CC(=O)N[C@@H]1[C@@H](O)[C@H](O)[C@@H](CO)O[C@H]1O", "note": "[n-Acetyl Glucosamine]", "values": [{"measurement": "expression of procollagen 1", "setting": "Procollagen I", "result": "significantly increased over Control"}, {"measurement": "expression of hyaluronic acid", "setting": "Hyaluronic Acid", "result": "significantly increased over Control"}]}
